Measured values from patent publication US6627732B1, “Glutathione derivatives and their dosage forms” (Teijin Limited, priority 1998, dated 2003).

How the values were obtained:
HL-60 cells = assay: HL-60 cell differentiation induction, NBT reducing activity, DMSO as solvent (Example 21); type: cell-based, human
Text: In a manner similar to that in Example 20, the in vitro activity of the glutathione derivatives of Examples 4, 5, and 8, and Comparative Example 3 were compared.
(1) The differences from Example 20 were: First, since the glutathione derivatives of Examples and Comparative Examples used dimethyl sulfoxide (DMSO) as the solvent because of the solubility of the compounds, the system contained 0.1-0.3 (v/v)% DMSO instead of ethanol. […] This caused slight differences in the sensitivity in the test results of the glutathione derivative of Example 4. Furthermore, in Example 21, the differentiation induction on HL-60 cells into granulocytic cells in the coexistence of 9-cis-RA was only evaluated.

[1] = test system: human leukemia cell HL-60; assay: HL-60 cell differentiation induction, NBT reducing activity (Example 20); type: cell-based; details: 4 days
Experimental: Using the differentiation induction effect on the granulocytes or monocytes/macrophages obtained by culturing the human leukemia cell HL-60 in the presence of 9-cys-retinoic acid (9-cis-RA) or activated vitamin D3 (1α, 25(OH)2D3), and in the coexistence of the glutathione derivatives of Examples and the Comparative Examples of the present invention, the growth-promotion activity was tested.
(1) HL-60 cells used were purchased from the cell bank (Japanese Cancer Research Resource Bank, Cell No. JCRBOO85). In accordance with a standard method, the lyophilized cell stocks that were thawed before the start of the experiment and subcultured were used.
Subculturing was carried out by centrifuging (1500 rpm, 5 minutes) the cells in suspension culture and recovering and by diluting it in a fresh culture liquid at a concentration of about 1/100 (1 to 2×10^4 cells/ml). As the culture liquid, an RPMI 1640 medium containing 10% fetal bovine serum was used.
(2) The cells subcultured in (1) were recovered by centrifugation (1500 rpm, 5 minutes), and were dispersed in the culture liquid at 2×10^4 cells/ml, which were plated on a 24-well culture plate at 1 ml/well. To this system were added the glutathione derivatives of Example 4, Example 11, Comparative Example 1 and Comparative Example 2 and a differentiation induction substance (9-cis-RA or 1α, 25(OH)2D3). Thus, 1 μl per well each of an ethanol solution of the differentiation induction substances 9-cis-RA and 1α, 25(OH)2D3 were added at 5×10^−6 M and 2×10^−6 M, respectively. Then, 1 μl per well each of ethanol solutions of the glutathione derivatives at 1×10^−4 M to 1×10^−2 M was added. As the solvent treatment for the control, 1 μl of ethanol per well was added in stead of the glutathione derivative, and as the single treatment of glutathione derivatives, 1 μl of ethanol per well was added in stead of the differentiation induction substance. After culturing at 37° C. and 5% CO2 for 4 days, the cells were recovered by centrifugation (1500 rpm, 5 minutes).
(3) The measurement of a nitroblue tetrazolium (NBT) reducing activity which is often used for the evaluation of differentiation induction effects on monocytes/macrophages or granulocytic cells was carried out according to the following procedure. Thus, the cells recovered by centrifugation in (2) were suspended in a fresh culture medium, and then NBT was added thereto to […] and 12-O-tetradecanoyl phorbol-13-acetate to 100 nM. After incubating at 37° C. for 25 minutes, cytospin samples were prepared. After air drying, the cells were subjected to Kernechtrot stain, and 500 cells per sample were examined under alight microscope to determine the ratio of the NBT reduction activity-positive cells.
(4) The result of the experiment in which glutathione derivatives at 10^−7 to 10^−5 M were treated together with a differentiation induction substances is shown in Table 4. For a single treatment of each glutathione derivative up to 10^−5 M, no increases in the NBT reducing activity was observed. In a combined treatment of a glutathione derivative and a differentiation induction substance, an enhanced ratio of the NBT reduction activity-positive cells relative to the single treatment with a differentiation induction substance was observed depending on the concentration of the glutathione derivative. There were no major differences observed in the strength of effects between the glutathione derivatives of Examples 4 and 11 and Comparative Examples 1, and 2.

[2] = compound 3 × 10^−6 M in DMSO, Solvent control (EtOH - 0.1%)
[3] = compound 3 × 10^−6 M in DMSO, with 9-cis-RA (5 × 10^−9 M)
[4] = compound 3 × 10^−7 M in DMSO, Solvent control (EtOH - 0.1%)
[5] = compound 3 × 10^−7 M in DMSO, with 9-cis-RA (5 × 10^−9 M)
[6] = compound 3 × 10^−8 M in DMSO, Solvent control (EtOH - 0.1%)
[7] = compound 3 × 10^−8 M in DMSO, with 9-cis-RA (5 × 10^−9 M)
[8] = compound 10^−6 M in DMSO, Solvent control (EtOH - 0.1%)
[9] = compound 10^−6 M in DMSO, with 9-cis-RA (5 × 10^−9 M)
[10] = compound 10^−7 M in DMSO, Solvent control (EtOH - 0.1%)
[11] = compound 10^−7 M in DMSO, with 9-cis-RA (5 × 10^−9 M)
[12] = compound 10^−8 M in DMSO, Solvent control (EtOH - 0.1%)
[13] = compound 10^−8 M in DMSO, with 9-cis-RA (5 × 10^−9 M)

Compound	Ratio of NBT reduction activity-positive cells (HL-60 cells; [2])	Ratio of NBT reduction activity-positive cells (HL-60 cells; [3])	Ratio of NBT reduction activity-positive cells (HL-60 cells; [4])	Ratio of NBT reduction activity-positive cells (HL-60 cells; [5])	Ratio of NBT reduction activity-positive cells (HL-60 cells; [6])	Ratio of NBT reduction activity-positive cells (HL-60 cells; [7])	Ratio of NBT reduction activity-positive cells (HL-60 cells; [8])	Ratio of NBT reduction activity-positive cells (HL-60 cells; [9])	Ratio of NBT reduction activity-positive cells (HL-60 cells; [10])	Ratio of NBT reduction activity-positive cells (HL-60 cells; [11])	Ratio of NBT reduction activity-positive cells (HL-60 cells; [12])	Ratio of NBT reduction activity-positive cells (HL-60 cells; [13])	further results
CCCCCCCCCCCCCCCCOC(=O)[C@H](CCC(=O)N[C@@H](CSCc1ccccc1)C(=O)N[C@@H](C(=O)OCC)c1ccccc1)NC(C)=O [Example 5, Ac-Glu(Cys(Bzl)-D-Phg-OEt)-O(Hexadecyl)]	0.2%	11.2%	0.7%	4.3%	0.7%	2.1%	0.3%	6.5%	0.9%	3.2%	0.3%	2.5%	–
CCCCCCCCCCCCCCCCOC(=O)[C@H](NC(=O)[C@H](CSCc1ccccc1)NC(=O)CC[C@H](N)C(=O)OCC)c1ccccc1.Cl [Example 8, Glu(Cys(Bzl)-D-Phg-O(Hexadecyl))-OEt Hydrochloride]	0.7%	16.9%	0.9%	4.7%	0.4%	3.2%	0.8%	8.8%	0.8%	4.2%	0.5%	2.9%	–
CCCCCCCCCCCCCCCCOC(=O)[C@H](NC(=O)[C@H](CSCc1ccccc1)NC(=O)CC[C@H](N)C(=O)O)c1ccccc1.Cl [Example 11, Glu(Cys(Bzl)-D-Phg-O(Hexadecyl))Hydrochloride]	–	–	–	–	–	–	–	–	–	–	–	–	Ratio of NBT reduction activity-positive cells ([1]; compound 10^−5 M, Solvent control (EtOH), no differentiation induction substance): 0.8%; Ratio of NBT reduction activity-positive cells ([1]; compound 10^−5 M, with 1α,25(OH)2D3 (2 × 10^−9 M)): 13.8%; Ratio of NBT reduction activity-positive cells ([1]; compound 10^−5 M, with 9-cis-RA (5 × 10^−9 M)): 19.8%; Ratio of NBT reduction activity-positive cells ([1]; compound 10^−6 M, Solvent control (EtOH), no differentiation induction substance): 0.2%; Ratio of NBT reduction activity-positive cells ([1]; compound 10^−6 M, with 1α,25(OH)2D3 (2 × 10^−9 M)): 4.8%; Ratio of NBT reduction activity-positive cells ([1]; compound 10^−6 M, with 9-cis-RA (5 × 10^−9 M)): 11.2%; Ratio of NBT reduction activity-positive cells ([1]; compound 10^−7 M, Solvent control (EtOH), no differentiation induction substance): 0.6%; Ratio of NBT reduction activity-positive cells ([1]; compound 10^−7 M, with 1α,25(OH)2D3 (2 × 10^−9 M)): 5.1%; Ratio of NBT reduction activity-positive cells ([1]; compound 10^−7 M, with 9-cis-RA (5 × 10^−9 M)): 8.8%
